± gives the uncertainty stated by the source.
Experiment: xn = mol fraction of the nth substance listed

CCCCCCCCn1cc[n+](C)c1.[Cl-] + CCCO
viscosity [mPa·s], 101 kPa
Details | x2 = 0.1071 | x2 = 0.2407 | x2 = 0.3036 | x2 = 0.4887
298.15 K | 7238 ± 3100 | – | 912 ± 230 | 178.5 ± 20
313.15 K | – | 649 ± 150 | 334.5 ± 56 | –

COC(=O)CC(C)=O + CCCO
viscosity [mPa·s], 101.3 kPa
Details | x1 = 0.1028 | x1 = 0.2021 | x1 = 0.3067 | x1 = 0.407 | x1 = 0.5069 | x1 = 0.609 | x1 = 0.7057 | x1 = 0.8054 | x1 = 0.9036
298.15 K | 1.497 ± 0.037 | 1.333 ± 0.033 | 1.253 ± 0.031 | 1.221 ± 0.03 | 1.219 ± 0.03 | 1.238 ± 0.031 | 1.278 ± 0.032 | 1.339 ± 0.033 | 1.501 ± 0.1
303.15 K | 1.337 ± 0.033 | 1.213 ± 0.03 | 1.128 ± 0.028 | 1.102 ± 0.028 | 1.104 ± 0.028 | 1.123 ± 0.028 | 1.163 ± 0.029 | 1.217 ± 0.03 | 1.295 ± 0.032
308.15 K | 1.198 ± 0.03 | 1.096 ± 0.028 | 1.024 ± 0.026 | 1.003 ± 0.025 | 1.007 ± 0.026 | 1.027 ± 0.026 | 1.062 ± 0.027 | 1.114 ± 0.028 | 1.183 ± 0.029

CS(=O)(=O)[O-].C[N+](C)(CCO)CCO + CCCO
Details | viscosity [mPa·s]
298.15 K, 101.33 kPa, x1 = 0.8978 | 965 ± 100

Clc1cccc(Cl)c1 + CCNc1ccccc1
viscosity [mPa·s], 101 kPa
Details | 303.15 K | 308.15 K
x2 = 0.0725 | 1.021 ± 0.012 | 0.954 ± 0.012
x2 = 0.1256 | 1.069 ± 0.012 | 0.996 ± 0.012
x2 = 0.1956 | 1.134 ± 0.013 | 1.051 ± 0.012
x2 = 0.2687 | 1.2 ± 0.013 | 1.108 ± 0.013
x2 = 0.3369 | 1.258 ± 0.013 | 1.157 ± 0.013
x2 = 0.4056 | 1.315 ± 0.013 | 1.205 ± 0.013
x2 = 0.4856 | 1.38 ± 0.014 | 1.259 ± 0.013
x2 = 0.5598 | 1.437 ± 0.014 | 1.308 ± 0.014
x2 = 0.6235 | 1.485 ± 0.014 | 1.347 ± 0.014
x2 = 0.6925 | 1.536 ± 0.015 | 1.389 ± 0.014
x2 = 0.7759 | 1.594 ± 0.015 | 1.436 ± 0.015
x2 = 0.8596 | 1.651 ± 0.016 | 1.482 ± 0.015
x2 = 0.9125 | 1.687 ± 0.016 | 1.511 ± 0.015

CCCCCCCCn1cc[n+](C)c1.[Cl-] + CCO
Details | viscosity [mPa·s]
298.15 K, 101 kPa, x2 = 0.1305 | 5426 ± 2200

CCOc1ccccc1 + CCO
298.15 K, 101 kPa
Details | viscosity [mPa·s]
x2 = 0.3183 | 1.067 ± 0.011
x2 = 0.5186 | 1.035 ± 0.01
x2 = 0.6605 | 1.01 ± 0.01
x2 = 0.764 | 0.997 ± 0.01
x2 = 0.8437 | 0.991 ± 0.01
x2 = 0.9064 | 1 ± 0.01
x2 = 0.9609 | 1.035 ± 0.01

COC(=O)CC(C)=O + CCO
viscosity [mPa·s], 101.3 kPa
Details | x1 = 0.1051 | x1 = 0.204 | x1 = 0.3085 | x1 = 0.4046 | x1 = 0.507 | x1 = 0.607 | x1 = 0.7033 | x1 = 0.8022 | x1 = 0.902
298.15 K | 0.96 ± 0.025 | 0.942 ± 0.024 | 0.965 ± 0.025 | 0.995 ± 0.025 | 1.057 ± 0.027 | 1.121 ± 0.028 | 1.202 ± 0.03 | 1.3 ± 0.032 | 1.422 ± 0.035
303.15 K | 0.879 ± 0.023 | 0.866 ± 0.022 | 0.883 ± 0.023 | 0.913 ± 0.023 | 0.968 ± 0.025 | 1.027 ± 0.026 | 1.099 ± 0.028 | 1.187 ± 0.03 | 1.294 ± 0.032
308.15 K | 0.806 ± 0.021 | 0.798 ± 0.021 | 0.814 ± 0.021 | 0.841 ± 0.022 | 0.892 ± 0.023 | 0.946 ± 0.024 | 1.011 ± 0.026 | 1.092 ± 0.027 | 1.186 ± 0.03

CS(=O)(=O)[O-].C[N+](C)(CCO)CCO + CCO
Details | viscosity [mPa·s]
298.15 K, 101.33 kPa, x1 = 0.8954 | 947.5 ± 100

OCC(O)CO + CCO
298.15 K, 101 kPa
Details | viscosity [mPa·s]
x1 = 0.053 | 1.52 ± 0.02
x1 = 0.11 | 2.23 ± 0.03
x1 = 0.18 | 3.49 ± 0.05
x1 = 0.25 | 5.83 ± 0.08
x1 = 0.33 | 10.4 ± 0.16
x1 = 0.43 | 20.6 ± 0.36
x1 = 0.54 | 45.3 ± 1
x1 = 0.67 | 103.3 ± 3.6
x1 = 0.82 | 254 ± 15

COC(=O)CC(C)=O + CCOC(=O)c1ccccc1
viscosity [mPa·s], 101.33 kPa
Details | x1 = 0.0992 | x1 = 0.2023 | x1 = 0.3004 | x1 = 0.399 | x1 = 0.4991 | x1 = 0.5978 | x1 = 0.6966 | x1 = 0.7979 | x1 = 0.8986
298.15 K | 1.834 ± 0.023 | 1.796 ± 0.023 | 1.757 ± 0.022 | 1.729 ± 0.022 | 1.7 ± 0.022 | 1.653 ± 0.021 | 1.633 ± 0.021 | 1.598 ± 0.02 | 1.583 ± 0.02
303.15 K | 1.661 ± 0.021 | 1.627 ± 0.021 | 1.593 ± 0.02 | 1.571 ± 0.02 | 1.543 ± 0.02 | 1.501 ± 0.019 | 1.484 ± 0.019 | 1.452 ± 0.019 | 1.44 ± 0.019
308.15 K | 1.514 ± 0.019 | 1.484 ± 0.019 | 1.453 ± 0.019 | 1.434 ± 0.018 | 1.408 ± 0.018 | 1.373 ± 0.018 | 1.356 ± 0.018 | 1.328 ± 0.017 | 1.316 ± 0.017

COC(=O)CC(C)=O + CCOC(C)=O
viscosity [mPa·s], 101.33 kPa
Details | x1 = 0.0001 | x1 = 0.1006 | x1 = 0.1979 | x1 = 0.2962 | x1 = 0.3988 | x1 = 0.4978 | x1 = 0.5934 | x1 = 0.6964 | x1 = 0.7983 | x1 = 0.9006
298.15 K | 0.433 ± 0.007 | 0.488 ± 0.007 | 0.551 ± 0.008 | 0.624 ± 0.009 | 0.711 ± 0.01 | 0.81 ± 0.011 | 0.916 ± 0.012 | 1.051 ± 0.014 | 1.195 ± 0.016 | 1.376 ± 0.018
303.15 K | – | 0.462 ± 0.007 | 0.519 ± 0.008 | 0.587 ± 0.008 | 0.666 ± 0.009 | 0.755 ± 0.01 | 0.849 ± 0.012 | 0.97 ± 0.013 | 1.099 ± 0.014 | 1.258 ± 0.016
308.15 K | – | 0.438 ± 0.007 | 0.491 ± 0.007 | 0.553 ± 0.008 | 0.629 ± 0.009 | 0.706 ± 0.01 | 0.792 ± 0.011 | 0.9 ± 0.012 | 1.015 ± 0.013 | 1.155 ± 0.015

CCOc1ccccc1 + CCOCC
298.15 K, 101 kPa
Details | viscosity [mPa·s]
x2 = 0.0745 | 1.027 ± 0.017
x2 = 0.0975 | 0.9993 ± 0.017
x2 = 0.1855 | 0.8671 ± 0.014
x2 = 0.2523 | 0.7856 ± 0.013
x2 = 0.3026 | 0.7152 ± 0.011
x2 = 0.3516 | 0.6667 ± 0.011
x2 = 0.4501 | 0.5713 ± 0.0089
x2 = 0.5106 | 0.5154 ± 0.008
x2 = 0.5579 | 0.4809 ± 0.0074
x2 = 0.6048 | 0.4406 ± 0.0067
x2 = 0.6882 | 0.3866 ± 0.0058
x2 = 0.7485 | 0.3494 ± 0.0053
x2 = 0.8303 | 0.3057 ± 0.0046
x2 = 0.9004 | 0.2674 ± 0.004

COc1ccc(C=O)cc1 + CCOCCO
viscosity [mPa·s], 101 kPa
Details | x1 = 0.0825 | x1 = 0.1683 | x1 = 0.2576 | x1 = 0.3506 | x1 = 0.4474 | x1 = 0.5484 | x1 = 0.6539 | x1 = 0.7641 | x1 = 0.8793
303.15 K | 1.521 ± 0.15 | 1.534 ± 0.15 | 1.586 ± 0.16 | 1.682 ± 0.17 | 1.828 ± 0.18 | 2.03 ± 0.2 | 2.294 ± 0.23 | 2.629 ± 0.26 | 3.044 ± 0.3
308.15 K | 1.459 ± 0.15 | 1.483 ± 0.15 | 1.535 ± 0.15 | 1.618 ± 0.16 | 1.735 ± 0.17 | 1.891 ± 0.19 | 2.09 ± 0.21 | 2.338 ± 0.23 | 2.641 ± 0.26
313.15 K | 1.33 ± 0.13 | 1.371 ± 0.14 | 1.431 ± 0.14 | 1.512 ± 0.15 | 1.617 ± 0.16 | 1.749 ± 0.18 | 1.912 ± 0.19 | 2.108 ± 0.21 | 2.342 ± 0.23
318.15 K | 1.251 ± 0.13 | 1.294 ± 0.13 | 1.351 ± 0.14 | 1.423 ± 0.14 | 1.513 ± 0.15 | 1.623 ± 0.16 | 1.755 ± 0.18 | 1.911 ± 0.19 | 2.096 ± 0.21

CCCCCCCCn1cc[n+](C)c1.[Cl-] + CN1CCCC1=O
100 kPa
Details | viscosity [mPa·s]
293.15 K, x1 = 0.2805 | 26.15 ± 1.1
308.15 K, x1 = 0.3657 | 33.55 ± 1.4
308.15 K, x1 = 0.4679 | 67.15 ± 2.9
318.15 K, x1 = 0.4679 | 43.25 ± 1.8
